Reference: patent EP1599197B1, “THE USE OF ANTIMUSCARINIC DRUGS” (FAPESP-Fundacao de Amparo a Pesquisa do Estado de SP, priority 2003, dated 2004)

Legend:
[1] = system: Wistar, adult, male, rats; assay: induction of status epilepticus by systemic pilocarpine; assay type: in vivo; conditions: pilocarpine 320 mg/Kg intraperitoneal, average
Description: (§1) Biperiden, together with atropine, is a classic cholinergic antagonist and is known to block muscarinic receptors. These drugs are known by their abilities in blocking the cholinergic transmission which is otherwise mediated through muscarinic receptors. For our experiments we used Wistar, adult, male, rats which were maintained under controled conditions of temperature, light/dark cylces and kept in groups of up to 6 animals in polypropilene boxes with free access to tap water and rat chow pellets. Rats were subject to the intraperitoneal administration of pilocarpine in a dose of 320 mg/Kg for the induction of status epilepticus.
As expected, the systemic administration of pilocarpine lead to a sequence of behavioral alterations such as akinesia, body tremor and/or myoclonic jerks of the head and oro-facial stereotyped movements accompained by profuse salivation. Status epilepticus, a condition of uninterrupt epileptic seizure, developed on average 19 ± 5 min after the injetion of pilocarpine. Three hours after the onset of status epilepticus the animals in the experimental group (n=10) were intraperitoneally injected with the first initial dose of biperiden (8 mg/kg). […]

[2] = system: Wistar, adult, male, rats; assay: pilocarpine model of epilepsy: video monitoring of spontaneous epileptic seizures after status epilepticus; assay type: in vivo
Description: The current invention was based on an experimental model of epilepsy in which in rats the induction of a brain lesion is accomplished through the administration of pilocarpine, a cholinergic agonist. According to the original description of this model, approximately 20-30 days after pilocarpine injection in either rats or mice, there is the onset of spontaneous recurrent epileptic seizures (Turski WA, Cavalheiro EA, Schwarz M, Czuczwar SJ, Kleinrok Z and Turski L. Limbic seizures produced by pilocarpine in rats: behavioural, electroencephalographic and neuropathological study. Behavioral Brain Research, 9:315-335, 1983; Mello LEAM, Cavalheiro EA, Babb TL, Kupfer WR, Pretorius JK, Tan AM and Finch. DM. Circuit mechanisms of seizures in the pilocarpine model of chronic epilepsy: cell loss and mossy fiber sprouting. Epilepsia 34:985-995, 1993). Due to its special features the pilocarpine model is currently one of the 3 most widely used experimental models in the study of epilepsy.
as §1
As expected, the systemic administration of pilocarpine lead to a sequence of behavioral alterations such as akinesia, body tremor and/or myoclonic jerks of the head and oro-facial stereotyped movements accompained by profuse salivation. Status epilepticus, a condition of uninterrupt epileptic seizure, developed on average 19 ± 5 min after the injetion of pilocarpine. Three hours after the onset of status epilepticus the animals in the experimental group (n=10) were intraperitoneally injected with the first initial dose of biperiden (8 mg/kg). This dose represents the concentration needed to provoke memory impairments in rodents (Roldan G, Bolanos-Badillo E, Gonzales-Sanches H, Quirarte GL and Prado-Alcala RA JW. Selective M1 muscarinic receptor antagonists disrupt memory consolidation of inhibitory avoidance in rats. Neurosci. Lett., 230:93-6, 1997).
For the animals in the control group (n=6), […] after the onset of status epileticus, administration of sterile saline solution (0.9% NaCl), rather than biperiden, was started with a similar protocol.
In the pilocarpine model of epilepsy, a few weeks after the administration of pilocarpine and the induction of status epilepticus, the animals develop spontaneous epileptic seizures which reccur for as long as the animal are allowed to live. […]
Approximately 15 to 20 days after the induction of status epilepticus, the reported duration of the latent period for the onset of spontaneous seizures, monitoring of the behavioral seizures with a videocamera for approximately 12 hours/week was initiated. […] Animals were video monitored for approximately 120 days after the induction of status epilepticus. The recorded video tapes were routinelly assessed in a 29 inches wide television screen and the seizures observed for each animal were recorded.

SMILES | time to development of status epilepticus after the injection of pilocarpine [1] [min] | qualitative or quantitative nature of each individual seizure, biperiden-treated vs control group ([2]; comparison between the two groups) | onset of spontaneous recurrent seizures after prophylactic use following pilocarpine lesion ([2]; prophylactic use after pilocarpine lesion, vs animals not treated with biperiden) | mean frequency of spontaneous epileptic seizures, control group relative to experimental group (treated with biperiden) ([2]; ratio control / biperiden-treated group, Table 2) [times higher] | Spontaneous seizures/h ([2]; rats, pilocarpine 320 mg/Kg i.p., biperiden 8 mg/kg i.p. every 8 hours for 10 days, n=10, video monitored about 120 days, mean ± standard deviation, p < 0.02 vs control (0.0401 ± 0.0113)) [seizures/h] | Latency (weeks): length of the latent period for the onset of the first recorded spontaneous epileptic seizure ([2]; rats, pilocarpine 320 mg/Kg i.p., biperiden 8 mg/kg i.p. starting 3 h after onset of status epilepticus, every 8 hours for 10 days, n=10, mean ± standard deviation, p < 0.03 vs control (3.2 ± 1.1)) [weeks]
CC[C@@H]1C(=O)OC[C@@H]1Cc1cncn1C [pilocarpine] | 19 ± 5 |  |  |  |  | 
OC(CCN1CCCCC1)(c1ccccc1)C1CC2C=CC1C2 (stereo not drawn) [biperiden] |  | no differences | significantly retarded or even supressed the onset of spontaneous recurrent seizures | 2 | 0.0202 ± 0.0047 | 6.0 ± 1.1
